The record followed here is the NIST ThermoML archive (doi:10.1016/j.jct.2018.04.010).

For data set [1] the following is noted: 101 kPa, Liquid, Vibrating tube method.
A short description of data set [2]: xn = mol fraction of the nth substance listed. The following applies: 101 kPa, Liquid, Vibrating tube method, x2 = 0.333.

Structures are written as SMILES. ± gives the expanded uncertainty stated by the source.

For `CO` [methanol], the mass density (as a rule, mass per unit of volume) is reported as 792.6 ± 2 kg/m3 in data set [1] (293.15 K), 783 ± 2 kg/m3 in data set [1] (303.15 K), 773.5 ± 2 kg/m3 in data set [1] (313.15 K) and 764 ± 2 kg/m3 in data set [1] (323.15 K).

Consider `NC(N)=O` [urea] + C[N+](C)(C)CCO.[Cl-], for which the mass density is 1199.7 ± 2 kg/m3 in data set [2] (293.15 K), 1194.2 ± 2 kg/m3 in data set [2] (303.15 K), 1188.6 ± 2 kg/m3 in data set [2] (313.15 K) and 1183.2 ± 2 kg/m3 in data set [2] (323.15 K).
